Assay results as given in ChEMBL document CHEMBL3885881, “DrugMatrix”.

Organism: Rattus norvegicus
Experiment: DrugMatrix - Regimen: Daily Repeat
Format: toxicity, organism-based, Sprague-Dawley
Parameters: regimen Daily Repeat, gender Male, age 6-8 weeks
Details: in vivo, sc, route subcutaneous, […]; for ABSOLUTE BASOPHIL / ABSOLUTE EOSINOPHIL / ABSOLUTE LYMPHOCYTE / ABSOLUTE MONOCYTE / ABSOLUTE SEGMENTED NEUTROPHIL / BASOPHIL / EOSINOPHIL / ERYTHROCYTE COUNT / HEMATOCRIT / HEMOGLOBIN / LEUKOCYTE COUNT / LYMPHOCYTE / MEAN CORPUSCULAR HEMOGLOBIN / MEAN CORPUSCULAR HEMOGLOBIN CONCENTRATION / MEAN CORPUSCULAR VOLUME / MONOCYTE / NEUTROPHIL / NUCLEATED RED BLOOD CELLS / PLATELET COUNT: tissue Blood; for ALANINE AMINOTRANSFERASE / ALBUMIN / ALKALINE PHOSPHATASE / ASPARTATE AMINOTRANSFERASE / BLOOD UREA NITROGEN / CARBON DIOXIDE / CHLORIDE / CHOLESTEROL / CREATINE PHOSPHOKINASE / CREATININE / GLUCOSE / LACTATE DEHYDROGENASE / LIPASE / PHOSPHORUS / POTASSIUM / SODIUM / TOTAL BILIRUBIN / TOTAL PROTEIN / URIC ACID: tissue Plasma
[1] = 0 mg/kg, 72 h, dose level Control, time 3 day
[2] = 0 mg/kg, 120 h, dose level Control, time 5 day
[3] = 56 mg/kg, 72 h, dose level M1, time 3 day

O=C(Nc1ccc(Br)cc1)c1cc(Br)cc(Br)c1O [TRIBROMSALAN]
ABSOLUTE BASOPHIL [1]: 0 CELLS/uL | ABSOLUTE EOSINOPHIL [1]: 42.67 CELLS/uL | ABSOLUTE LYMPHOCYTE [1]: 10202 CELLS/uL | ABSOLUTE MONOCYTE [1]: 261.5 CELLS/uL | ABSOLUTE SEGMENTED NEUTROPHIL [1]: 2193.83 CELLS/uL | BASOPHIL [1]: 0% | EOSINOPHIL [1]: 0.33% | ERYTHROCYTE COUNT [1]: 5.63 x10E6/uL | HEMATOCRIT [1]: 35.35% | HEMOGLOBIN [1]: 13.07 G/DL | LEUKOCYTE COUNT [1]: 12.7 x10E3/uL | LYMPHOCYTE [1]: 81.17% | MEAN CORPUSCULAR HEMOGLOBIN [1]: 23.23 pg | MEAN CORPUSCULAR HEMOGLOBIN CONCENTRATION [1]: 36.97 G/DL | MEAN CORPUSCULAR VOLUME [1]: 62.82 fL | MONOCYTE [1]: 2% | NEUTROPHIL [1]: 16.5% | NUCLEATED RED BLOOD CELLS [1]: 0 /100WBC | PLATELET COUNT [1]: 1180.33 x10E3/uL | ALANINE AMINOTRANSFERASE [1]: 48.67 u/L | ALBUMIN [1]: 4.08 G/DL | ALKALINE PHOSPHATASE [1]: 360.67 u/L | ASPARTATE AMINOTRANSFERASE [1]: 85.5 u/L | BLOOD UREA NITROGEN [1]: 17.83 mg/dL | CARBON DIOXIDE [1]: 26.17 mmol/L | CHLORIDE [1]: 101.83 MEQ/L | CHOLESTEROL [1]: 71 mg/dL | CREATINE PHOSPHOKINASE [1]: 515.17 u/L | CREATININE [1]: 0.22 mg/dL | GLUCOSE [1]: 192.5 mg/dL | LACTATE DEHYDROGENASE [1]: 214.67 u/L | LIPASE [1]: 8.5 u/L | PHOSPHORUS [1]: 12.95 mg/dL | POTASSIUM [1]: 6.39 MEQ/L | SODIUM [1]: 142.38 MEQ/L | TOTAL BILIRUBIN [1]: 0.18 mg/dL | TOTAL PROTEIN [1]: 5.95 G/DL | URIC ACID [1]: 1.83 mg/dL | ABSOLUTE BASOPHIL [2]: 0 CELLS/uL | ABSOLUTE EOSINOPHIL [2]: 188.5 CELLS/uL | ABSOLUTE LYMPHOCYTE [2]: 12360.83 CELLS/uL | ABSOLUTE MONOCYTE [2]: 64.33 CELLS/uL | ABSOLUTE SEGMENTED NEUTROPHIL [2]: 1986.33 CELLS/uL | BASOPHIL [2]: 0% | EOSINOPHIL [2]: 1.33% | ERYTHROCYTE COUNT [2]: 5.52 x10E6/uL | HEMATOCRIT [2]: 35.82% | HEMOGLOBIN [2]: 13.25 G/DL | LEUKOCYTE COUNT [2]: 14.6 x10E3/uL | LYMPHOCYTE [2]: 84.5% | MEAN CORPUSCULAR HEMOGLOBIN [2]: 24.05 pg | MEAN CORPUSCULAR HEMOGLOBIN CONCENTRATION [2]: 36.98 G/DL | MEAN CORPUSCULAR VOLUME [2]: 64.97 fL | MONOCYTE [2]: 0.5% | NEUTROPHIL [2]: 13.67% | NUCLEATED RED BLOOD CELLS [2]: 0 /100WBC | PLATELET COUNT [2]: 1297.83 x10E3/uL | ALANINE AMINOTRANSFERASE [2]: 51.17 u/L | ALBUMIN [2]: 4.08 G/DL | ALKALINE PHOSPHATASE [2]: 393.17 u/L | ASPARTATE AMINOTRANSFERASE [2]: 111 u/L | BLOOD UREA NITROGEN [2]: 18.17 mg/dL | CARBON DIOXIDE [2]: 25 mmol/L | CHLORIDE [2]: 105.17 MEQ/L | CHOLESTEROL [2]: 65.5 mg/dL | CREATINE PHOSPHOKINASE [2]: 911.5 u/L | CREATININE [2]: 0.21 mg/dL | GLUCOSE [2]: 183 mg/dL | LACTATE DEHYDROGENASE [2]: 189 u/L | LIPASE [2]: 8.33 u/L | PHOSPHORUS [2]: 12.78 mg/dL | POTASSIUM [2]: 6.05 MEQ/L | SODIUM [2]: 144.57 MEQ/L | TOTAL BILIRUBIN [2]: 0.25 mg/dL | TOTAL PROTEIN [2]: 5.83 G/DL | URIC ACID [2]: 1.58 mg/dL | ABSOLUTE BASOPHIL [3]: 0 CELLS/uL | ABSOLUTE EOSINOPHIL [3]: 245 CELLS/uL | ABSOLUTE LYMPHOCYTE [3]: 12670.67 CELLS/uL | ABSOLUTE MONOCYTE [3]: 0 CELLS/uL | ABSOLUTE SEGMENTED NEUTROPHIL [3]: 1651 CELLS/uL | BASOPHIL [3]: 0% | EOSINOPHIL [3]: 1.67% | ERYTHROCYTE COUNT [3]: 5.81 x10E6/uL | HEMATOCRIT [3]: 35.97% | HEMOGLOBIN [3]: 13.47 G/DL | LEUKOCYTE COUNT [3]: 14.57 x10E3/uL | LYMPHOCYTE [3]: 87.33% | MEAN CORPUSCULAR HEMOGLOBIN [3]: 23.27 pg | MEAN CORPUSCULAR HEMOGLOBIN CONCENTRATION [3]: 37.43 G/DL | MEAN CORPUSCULAR VOLUME [3]: 62.03 fL | MONOCYTE [3]: 0% | NEUTROPHIL [3]: 11% | NUCLEATED RED BLOOD CELLS [3]: 0 /100WBC | PLATELET COUNT [3]: 1364.67 x10E3/uL | ALANINE AMINOTRANSFERASE [3]: 47.67 u/L | ALBUMIN [3]: 4.2 G/DL | ALKALINE PHOSPHATASE [3]: 292.33 u/L | ASPARTATE AMINOTRANSFERASE [3]: 78.67 u/L | BLOOD UREA NITROGEN [3]: 14.67 mg/dL | CARBON DIOXIDE [3]: 25 mmol/L | CHLORIDE [3]: 102.33 MEQ/L | CHOLESTEROL [3]: 80.67 mg/dL | CREATINE PHOSPHOKINASE [3]: 290.33 u/L | CREATININE [3]: 0.19 mg/dL | GLUCOSE [3]: 173.67 mg/dL | LACTATE DEHYDROGENASE [3]: 127.33 u/L | LIPASE [3]: 8.33 u/L | PHOSPHORUS [3]: 12.7 mg/dL | POTASSIUM [3]: 5.88 MEQ/L | SODIUM [3]: 145.47 MEQ/L | TOTAL BILIRUBIN [3]: 0.2 mg/dL | TOTAL PROTEIN [3]: 6.23 G/DL | URIC ACID [3]: 1.67 mg/dL
